Among the data in patent US8193224B2, “Medicinal composition for prevention or treatment of parasitic protozoan infection” (Fujifilm Corporation, priority 2004, dated 2012) are Selective toxicity and EC50 values, retold here.

Format in all cases: cell-based
Data set [1] has as its system Trypanosoma brucei rhodensiense (STIB 900 strain). Briefly: African trypanosome protozoa growth inhibition screening test. Conditions: chemotherapy index = EC50 rat L6 cells / EC50 African trypanosome protozoa.
The test system of data set [2] is Leishmania donovani (MHOM/ET/67/L82 strain). Briefly: Leishmania protozoa growth inhibition screening test. Conditions: chemotherapy index = EC50 rat L6 cells / EC50 leishmania protozoa.
The nature of data set [3]: Growth inhibition test of rat L6 cells. The settings on record: L6 cells (rat skeletal myoblast), Alamar Blue (Table 3), read-out: 50% growth inhibiting concentration Cytotoxicity L6. As to the method:
Rat derived-L6 cells (rat skeletal myoblast cell) were used. As medium, RPMI1640 medium was supplemented so that L-glutamin (200 mM) is 1%, and fetal bovine serum 10%, and the medium was cultured under CO2 concentration 5%, at 37° C. The compounds of the present invention and the target drugs to be used in the test were dissolved in DMSO, to make a test solution of a predetermined concentration. Pre-culture was conducted and medium containing cells which have entered the logarithmic growth phase was taken to wells of a 96-well culture plate. Then, a test solution containing drug of a predetermined concentration or a drug-free DMSO was added. Test solutions were taken by duplicates. Culture plate was cultured for 72 hours in an incubator, to test the growth inhibition activity. Test was conducted as follows.
10 μl of Alamar Blue aqueous solution was added to each well, and the resultant was further cultured for 2 hours. Next, the culture plate was placed on a fluorescent micro-plate reader (Spectramax Gemeni XS; US Molecular Device), radiated at an excited wavelength of 536 nm. Fluorescent intensity was measured at 588 nm, and residual rate of L6 cells of the test solution added group, and that of the control was calculated. Based on the cell residual rate obtained in the above, growth inhibition rate to L6 cells was calculated, to obtain a 50% growth inhibition concentration (EC50). Growth inhibition rate (%)={(C−A)/(B−A)}×100 A: primary cell count B: cell count of control, 3 days after C: cell count of wells added with a sample, 3 days after […]

The test system of data set [4] is Trypanosoma cruzi (Tulahuen C2C4 strain). Briefly: American trypanosome protozoa growth inhibition screening test. As to the method:
In the present example, amastigote and trypomastigote infected with rat L6 cells of protozoa of Trypanosoma cruzi (Tulahuen C2C4 strain) were used. As medium used in the test, RPMI 1640 medium containing L6 cells was supplemented so that L-glutamine (200 mM) becomes 1%, fetal bovine serum becomes 10%, which was cultured under CO2 concentration 5%, at 37° C.
The compounds of the present invention to be used in the test and the positive target agent (benznidazole) were dissolved in DMSO to make a test solution of a predetermined concentration. A medium containing 5×10^3 protozoa was added to wells of a 96-well culture plate, and pre-cultured for 48 hours. After replacing the medium, test solution containing drug of a predetermined concentration or a drug-free DMSO was added. Test solutions were taken by duplicates. After culturing the culture plate in an incubator for 96 hours, growth inhibition activity was tested. Test was conducted as follows.
50 μL of CPRG/Nonidet was added to each well, and allowed to rest for 2 to 6 hours. Next, the culture plate was placed on a fluorescent micro-plate reader, and the absorbance was measured at 540 nm. Growth inhibition rate was calculated with the following formula based on the protozoan infection rate which was obtained by calculating trypanosome infection rate of the test solution added group and control group, to obtain a 50% growth inhibition concentration (EC50). Growth inhibition rate (%)={1−(b−a)/(c−a)}×100 a: early infection rate b: infection rate when test solution was added c: infection rate of the control

Data set [5] relates to Trypanosoma brucei rhodensiense (STIB 900 strain). Briefly: African trypanosome protozoa growth inhibition screening test. The settings on record: Trypanosoma brucei, STIB900; STIB 900 strain, blood stream form, 72 hours, Alamar Blue; read-out: 50% growth inhibiting concentration Trypanosoma brucei rhod. As to the method: In the present example, protozoa of Trypanosoma brucei rhodensiense (STIB 900 strain), a trypamastigote living in blood stream, was used. The medium used in the experiment was a MEM medium which was sterilized with a filter and supplemented with 25 mM N-2-hydroxyethylpiperazine-2-ethansulfonic acid […]), 1 g/L glucose, 1% MEM non-essential amino acid, 0.2 mM 2-mercaptoethanol, 2 mM sodium pyruvate, 0.1 mM hypoxanthine, and 15% heat-treated horse serum. The protozoa was cultured in an atmosphere of CO2 concentration 5%, at a temperature of 37° C.
The compounds of the present invention to be used in the present test and the positive target drug (melarsoprol) were dissolved in DMSO to make a test solution of a predetermined concentration. A medium containing 8×10^3 protozoa, and a test solution containing a drug of a predetermined concentration or a drug-free DMSO were added to wells of a 96-well culture plate, and subsequently, medium was added so that the amount in each well becomes 100 μL. Test solutions were taken by duplicates. After culturing the culture plate for 72 hours in an incubator, growth inhibition activity was tested. Test was conducted as follows. 10 μL of Alamar Blue aqueous solution was added to each well, and the resultant was further cultured for 2 hours. Next, the culture plate was placed on a fluorescent micro-plate reader (Spectramax Gemeni XS; US Molecular Device), radiated at an excited wavelength of 536 nm. Fluorescent intensity was measured at 588 nm, to calculate the trypanosome protozoa infected rate of the test solution added-group, and of the control group. From the protozoan infection rate obtained in the above, growth inhibition rate was calculated with the following formula, to obtain a 50% growth inhibition concentration (EC50). Growth inhibition rate (%)={1−(b−a)/(c−a)}×100 a: early infection rate b: infection rate when test solution was added c: infection rate of the control

For data set [6], the system named is Leishmania donovani (MHOM/ET/67/L82 strain). Briefly: Leishmania protozoa growth inhibition screening test. Conditions: Leishmania donovani; MHOM/ET/67/L82 strain amastigote, pH 5.4, 72 hours, Alamar Blue; read-out: 50% growth inhibition concentration Leishmania donovani. As to the method: In the present example, Leishmania donovani (MHOM/ET/67/L82 strain) was used. Protozoa was subcultured in Syrian Golden hamster, from which an amastigote was obtained. In the experiment, SM medium supplemented with 10% heat-treated bovine fetal serum was used, which was adjusted to pH 5.4, and cultured in an atmosphere of 5% CO2 concentration, at 37° C.
The compounds of the present invention to be used in the present test and the positive target drug (miltefosine) were dissolved in DMSO to make a test solution of a predetermined concentration. After adding a medium containing a predetermined number of protozoa to wells of a 96-well culture plate and pre-treating, concentration of the amastigote was measured with CASY cell analysis system (Scharfe, Germany). Then, test solution containing a drug of a predetermined concentration or a drug-free DMSO was added. Test solutions were taken by duplicates. After culturing the culture plate for 72 hours in an incubator, growth inhibition activity was tested. Test was conducted as follows.
10 μL of Alamar Blue aqueous solution was added to each well, and the resultant was further cultured for 2 hours. Next, the culture plate was placed on a fluorescent micro-plate reader (Spectramax Gemeni XS; US Molecular Device), radiated at an excited wavelength of 536 nm. Fluorescent intensity was measured at 588 nm, and infection rate of leishmania protozoa of the test solution added-group and control was calculated, to obtain a 50% growth inhibition concentration (EC50). Growth inhibition rate (%)={1−(b−a)/(c−a)}×100 a: early infection rate b: infection rate when test solution was added c: infection rate of the control

pEC50: −log10 of the molar value.

As for `CCC[n+]1c(/C=c2\s/c(=C\C=C3/SCCN3CC)c(=O)n2CC)sc2c3ccccc3ccc21` [A-16], the Selective toxicity in data set [1] came to 31; in data set [2], 120; in data set [4] (chemotherapy index = EC50 rat L6 cells / EC50 American trypanosome protozoa), 10. Further, in data set [3], the EC50 at 72 h worked out at 940 nM. In addition, the pEC50 in data set [4] (Trypanosoma cruzi, Tulahuen C2C4 strain in rat L6 cells, 96 hours, CPRG/Nonidet, read-out: 50% growth inhibition concentration Trypanosoma cruzi) was 7.05; in data set [5], 7.52; in data set [6] it was 8.10.
